Data published in patent US8785462B2, “5-hydroxypyrimidine-4-carboxamide derivative” (Daiichi Sankyo Company, Limited, priority 2009, dated 2014).

Test system: human liver cancer-derived cell line Hep3B
Assay: In vitro erythropoietin (EPO) induction activity in Hep3B cells (human EPO ELISA of culture supernatant)
Format: cell-based
Conditions: test compound 12.5 μM, Hep3B cells cultured 24 hours at 37° C., multiple of the EPO concentration in the control (0.5% DMSO = 1)
Method: In vitro erythropoietin (EPO) induction activity of test compounds was evaluated using human liver cancer-derived cell line Hep3B (ATCC, Manassas, Va.). Hep3B cells were cultured overnight at 37° C. in Dulbecco's modified Eagle's medium (DMEM) in the presence of 10% fetal bovine serum (FBS) (24-well plate, 1.0×10^5 cells/well). After replacing with fresh DMEM (+10% FBS) containing a test compound dissolved in 0.5% dimethyl sulfoxide (DMSO) (prepared to a concentration of 12.5 μM) or a solvent control (0.5% DMSO), the cells were cultured for 24 hours at 37° C. After recovering the culture supernatant, EPO concentration in the culture supernatant was quantified using a human EPO ELISA kit (StemCell Technologies).
The EPO concentration in the case of using a compound of each example as a test compound was expressed as a multiple of the EPO concentration in the control.

Work on Cc1nc(CC2CCN(c3ccc(-c4ccc(CO)cc4)cc3)CC2)nc(C(=O)NCC(=O)O)c1O [Example 1, ({[5-Hydroxy-2-{(1-[4′-(hydroxymethyl)biphenyl-4-yl]piperidin-4-yl}methyl)-6-methylpyrimidin-4-yl]carbonyl}amino)acetic acid] yielded a fold induction at 12.5 µM of 55.

In the case of Cc1nc(CC2CCN(c3ccc(-c4ccc(C(C)O)cc4)cc3)CC2)nc(C(=O)NCC(=O)O)c1O (stereo not drawn) [Example 3, ({[5-Hydroxy-2-{(1-[4′-(1-hydroxyethyl)biphenyl-4-yl]piperidin-4-yl}methyl)-6-methylpyrimidin-4-yl]carbonyl}amino)acetic acid], the fold induction at 12.5 µM is reported as 24.

Work on Cc1nc(CC2CCN(c3ccc(-c4ccc(CCO)cc4)cc3)CC2)nc(C(=O)NCC(=O)O)c1O [Example 4, ({[5-Hydroxy-2-({1-[4′-(2-hydroxyethyl)biphenyl-4-yl]piperidin-4-yl}methyl)-6-methylpyrimidin-4-yl]carbonyl}amino)acetic acid] yielded a fold induction at 12.5 µM of 73.

Work on Cc1nc(CC2CCN(c3ccc(-c4ccc(CC(C)O)cc4)cc3)CC2)nc(C(=O)NCC(=O)O)c1O (stereo not drawn) [Example 5, ({[5-Hydroxy-2-{(1-[4′-(2-hydroxypropyl)biphenyl-4-yl]piperidin-4-yl}methyl)-6-methylpyrimidin-4-yl]carbonyl}amino)acetic acid] yielded a fold induction at 12.5 µM of 48.

Compound Cc1nc(CC2CCN(c3ccc(-c4ccc(C(C)(C)CO)cc4)cc3)CC2)nc(C(=O)NCC(=O)O)c1O [Example 6, ({[5-Hydroxy-2-{(1-[4′-(2-hydroxy-1,1-dimethylethyl)biphenyl-4-yl]piperidin-4-yl}methyl)-6-methylpyrimidin-4-yl]carbonyl}amino)acetic acid] has a fold induction at 12.5 µM of 36.

Cc1nc(CC2CCN(c3ccc(-c4ccc(C(=O)N(C)C)cc4)cc3)CC2)nc(C(=O)NCC(=O)O)c1O [Example 7, ({[2-{(1-[4′-(Dimethylcarbamoyl)biphenyl-4-yl]piperidin-4-yl}methyl)-5-hydroxy-6-methylpyrimidin-4-yl]carbonyl}amino)acetic acid] gave a fold induction at 12.5 µM of 50.

With CNC(=O)c1ccc(-c2ccc(N3CCC(Cc4nc(C)c(O)c(C(=O)NCC(=O)O)n4)CC3)cc2)cc1 [Example 8, ({[5-Hydroxy-6-methyl-2-{(1-[4′-(methylcarbamoyl)biphenyl-4-yl]piperidin-4-yl}methyl)pyrimidin-4-yl]carbonyl}amino)acetic acid] the fold induction at 12.5 µM was 94.

For Cc1nc(CC2CCN(c3ccc(-c4ccc(CC(=O)N(C)C)cc4)cc3)CC2)nc(C(=O)NCC(=O)O)c1O [Example 9, [({2-[(1-{4′-[2-(Dimethylamino)-2-oxoethyl]biphenyl-4-yl}piperidin-4-yl)methyl]-5-hydroxy-6-methylpyrimidin-4-yl}carbonyl)amino]acetic acid], the fold induction at 12.5 µM was 36.

CCOC(=O)c1ccc(-c2ccc(N3CCC(Cc4nc(C)c(O)c(C(=O)NCC(=O)O)n4)CC3)cc2)nc1 [Example 16, [({2-[(1-{4-[5-(Ethoxycarbonyl)pyridin-2-yl]phenyl}piperidin-4-yl)methyl]-5-hydroxy-6-methylpyrimidin-4-yl}carbonyl)amino]acetic acid] showed a fold induction at 12.5 µM of 47.

Cc1nc(CC2CCN(c3ccc(-c4ccc(CC(C)O)cc4)cn3)CC2)nc(C(=O)NCC(=O)O)c1O (stereo not drawn) [Example 20, [({5-Hydroxy-2-[(1-{5-[4-(2-hydroxypropyl)phenyl]pyridin-2-yl}piperidin-4-yl)methyl]-6-methylpyrimidin-4-yl}carbonyl)amino]acetic acid] was tested, and the fold induction at 12.5 µM was 11.

With Cc1nc(CC2CCN(c3ccc(-c4ccc(CO)c(Cl)c4)cc3)CC2)nc(C(=O)NCC(=O)O)c1O [Example 24, ({[2-{(1-[3′-Chloro-4′-(hydroxymethyl)biphenyl-4-yl]piperidin-4-yl}methyl)-5-hydroxy-6-methylpyrimidin-4-yl]carbonyl}amino)acetic acid] the fold induction at 12.5 µM was 30.

For Cc1cc(CO)ccc1-c1ccc(N2CCC(Cc3nc(C)c(O)c(C(=O)NCC(=O)O)n3)CC2)cc1 [Example 25, ({[5-Hydroxy-2-{(1-[4′-(hydroxymethyl)-2′-methylbiphenyl-4-yl]piperidin-4-yl}methyl)-6-methylpyrimidin-4-yl]carbonyl}amino)acetic acid], the fold induction at 12.5 µM was 22.

Compound Cc1cc(-c2ccc(N3CCC(Cc4nc(C)c(O)c(C(=O)NCC(=O)O)n4)CC3)cc2C)ccc1CO [Example 26, ({[5-Hydroxy-2-({1-[4′-(hydroxymethyl)-2,3′-dimethylbiphenyl-4-yl]piperidin-4-yl}methyl)-6-methylpyrimidin-4-yl]carbonyl}amino)acetic acid] has a fold induction at 12.5 µM of 13.

CCC(O)Cc1ccc(-c2ccc(N3CCC(Cc4nc(C)c(O)c(C(=O)NCC(=O)O)n4)CC3)cc2)cc1 (stereo not drawn) [Example 27, ({[5-Hydroxy-2-{(1-[4′-(2-hydroxybutyl)biphenyl-4-yl]piperidin-4-yl}methyl)-6-methylpyrimidin-4-yl]carbonyl}amino)acetic acid] showed a fold induction at 12.5 µM of 30.

Compound Cc1nc(CC2CCN(c3ccc(-c4ccc(C(F)(F)CO)cc4)cc3)CC2)nc(C(=O)NCC(=O)O)c1O [Example 30, ({[2-{(1-[4′-(1,1-Difluoro-2-hydroxyethyl)biphenyl-4-yl]piperidin-4-yl}methyl)-5-hydroxy-6-methylpyrimidin-4-yl]carbonyl}amino)acetic acid] has a fold induction at 12.5 µM of 23.

Compound COCc1ccc(-c2ccc(N3CCC(Cc4nc(C)c(O)c(C(=O)NCC(=O)O)n4)CC3)cc2)cc1 [Example 35, ({[5-Hydroxy-2-{(1-[4′-(methoxymethyl)biphenyl-4-yl]piperidin-4-yl}methyl)-6-methylpyrimidin-4-yl]carbonyl}amino)acetic acid] has a fold induction at 12.5 µM of 53.

Compound Cc1nc(CC2CCN(c3ccc(-c4ccc(CO)cc4F)cc3)CC2)nc(C(=O)NCC(=O)O)c1O [Example 36, ({[2-{(1-[2′-Fluoro-4′-(hydroxymethyl)biphenyl-4-yl]piperidin-4-yl}methyl)-5-hydroxy-6-methylpyrimidin-4-yl]carbonyl}amino)acetic acid] has a fold induction at 12.5 µM of 25.

Cc1nc(CC2CCN(c3ccc(-c4ccc(CO)c(F)c4)cc3)CC2)nc(C(=O)NCC(=O)O)c1O [Example 37, ({[2-({1-[3′-Fluoro-4′-(hydroxymethyl)biphenyl-4-yl]piperidin-4-yl}methyl)-5-hydroxy-6-methylpyrimidin-4-yl]carbonyl}amino)acetic acid] was tested, and the fold induction at 12.5 µM was 31.

With Cc1nc(CC2CCN(c3ccc(-c4ccc(CO)cc4)c(F)c3)CC2)nc(C(=O)NCC(=O)O)c1O [Example 38, ({[2-({1-[2-Fluoro-4′-(hydroxymethyl)biphenyl-4-yl]piperidin-4-yl}methyl)-5-hydroxy-6-methylpyrimidin-4-yl]carbonyl}amino)acetic acid] the fold induction at 12.5 µM was 24.

For Cc1nc(CC2CCN(c3ccc(-c4ccc(CO)cc4)cc3F)CC2)nc(C(=O)NCC(=O)O)c1O [Example 39, ({[2-{(1-[3-Fluoro-4′-(hydroxymethyl)biphenyl-4-yl]piperidin-4-yl}methyl)-5-hydroxy-6-methylpyrimidin-4-yl]carbonyl}amino)acetic acid], the fold induction at 12.5 µM was 18.

For Cc1cc(-c2ccc(N3CCC(Cc4nc(C)c(O)c(C(=O)NCC(=O)O)n4)CC3)cc2)ccc1CO [Example 40, ({[5-Hydroxy-2-({1-[4′-(hydroxymethyl)-3′-methylbiphenyl-4-yl]piperidin-4-yl}methyl)-6-methylpyrimidin-4-yl]carbonyl}amino)acetic acid], the fold induction at 12.5 µM was 25.

Compound Cc1nc(CC2CCN(c3ccc(-c4cc(F)c(CO)c(F)c4)cc3)CC2)nc(C(=O)NCC(=O)O)c1O [Example 41, ({[2-({1-[3′,5′-Difluoro-4′-(hydroxymethyl)biphenyl-4-yl]piperidin-4-yl}methyl)-5-hydroxy-6-methylpyrimidin-4-yl]carbonyl}amino)acetic acid] has a fold induction at 12.5 µM of 20.

With Cc1nc(CC2CCN(c3ccc(-c4cc(Cl)c(CO)c(Cl)c4)cc3)CC2)nc(C(=O)NCC(=O)O)c1O [Example 42, ({[2-{(1-[3′,5′-Dichloro-4′-(hydroxymethyl)biphenyl-4-yl]piperidin-4-yl}methyl)-5-hydroxy-6-methylpyrimidin-4-yl]carbonyl}amino)acetic acid] the fold induction at 12.5 µM was 28.

[2H]C([2H])(O)c1ccc(-c2ccc(N3CCC(Cc4nc(C)c(O)c(C(=O)NCC(=O)O)n4)CC3)cc2)cc1 [Example 44, ({[5-Hydroxy-2-{(1-[4′-(hydroxymethyl)biphenyl-4-yl]piperidin-4-yl}methyl)-6-methylpyrimidin-4-yl]carbonyl}amino)acetic acid-d2] gave a fold induction at 12.5 µM of 26.

For Cc1nc(CC2CCN(c3ccc(-c4ccc(C[C@H](C)O)cc4)cc3)CC2)nc(C(=O)NCC(=O)O)c1O [Example 45, [({5-Hydroxy-2-[(1-{4′-[(2S)-2-hydroxypropyl]biphenyl-4-yl}piperidin-4-yl)methyl]-6-methylpyrimidin-4-yl}carbonyl)amino]acetic acid], the fold induction at 12.5 µM was 41.

Cc1nc(CC2CCN(c3ccc(-c4ccc(C[C@@H](C)O)cc4)cc3)CC2)nc(C(=O)NCC(=O)O)c1O [Example 46, [({5-Hydroxy-2-[(1-{4′-[(2R)-2-hydroxypropyl]biphenyl-4-yl}piperidin-4-yl)methyl]-6-methylpyrimidin-4-yl}carbonyl)amino]acetic acid] gave a fold induction at 12.5 µM of 45.

CC[C@H](O)Cc1ccc(-c2ccc(N3CCC(Cc4nc(C)c(O)c(C(=O)NCC(=O)O)n4)CC3)cc2)cc1 [Example 47, [({5-Hydroxy-2-[(1-{4′-[(2S)-2-hydroxybutyl]biphenyl-4-yl}piperidin-4-yl)methyl]-6-methylpyrimidin-4-yl}carbonyl)amino]acetic acid] was tested, and the fold induction at 12.5 µM was 34.
